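Protocol summary: plate cells (96-well), add compound at 5 concentrations, incubate 48 h, interpolate endpoints linearly. GI50: concentration for 50% inhibition of growth. TGI denotes the concentration required for complete inhibition of growth.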
What was measured:
Assay in all cases: inhibition of tumour cell growth, NCI panel, 48 h
NCI-H522 lung = test system: NCI-H522 lung
UACC-62 melanoma = test system: UACC-62 melanoma
NCI-H460 lung = test system: NCI-H460 lung
SF-539 CNS = test system: SF-539 CNS
UO-31 renal = test system: UO-31 renal
SK-MEL-28 melanoma = test system: SK-MEL-28 melanoma
HL-60(TB) leukemia = test system: HL-60(TB) leukemia
A498 renal = test system: A498 renal
HOP-62 NSCLC = test system: HOP-62 NSCLC
HOP-92 NSCLC = test system: HOP-92 NSCLC

SMILES | GI50 (NCI-H522 lung) | TGI (NCI-H522 lung) | GI50 (UACC-62 melanoma) | TGI (UACC-62 melanoma) | GI50 (NCI-H460 lung) | TGI (NCI-H460 lung) | GI50 (SF-539 CNS) | TGI (SF-539 CNS) | GI50 (UO-31 renal) | TGI (UO-31 renal) | GI50 (SK-MEL-28 melanoma) | TGI (SK-MEL-28 melanoma) | GI50 (HL-60(TB) leukemia) | TGI (HL-60(TB) leukemia) | GI50 (A498 renal) | TGI (A498 renal) | TGI (HOP-62 NSCLC) | TGI (HOP-92 NSCLC) | GI50 (HOP-62 NSCLC) | GI50 (HOP-92 NSCLC)
Cc1ccc(C(=O)N=Nc2c(O)[nH]c3ccc(Cl)cc23)cc1 | 20.2 µM | > 50 µM | 9.3 µM | 23.1 µM | 15.1 µM | > 50 µM | > 50 µM | > 50 µM | > 50 µM | > 50 µM | 41.8 µM | > 50 µM | 38.7 µM | > 50 µM | 35.3 µM | > 50 µM |  |  |  | 
Clc1cccc2c1OCC1C(c3ccccc3)=NN(c3ccccc3)C21 (configuration not stated) |  | > 100 µM |  |  |  | > 100 µM |  |  |  | > 100 µM |  | > 100 µM |  | > 100 µM |  | > 100 µM | > 100 µM | > 100 µM |  | 
Cc1cc(S(N)(=O)=O)c(S/C(=N\Nc2ccc([N+](=O)[O-])cc2)c2ccc3ccccc3c2)cc1Cl | 22.9 µM | > 100 µM | 15.6 µM | 28.9 µM | 18.5 µM | > 100 µM | 4.1 µM | 18.7 µM | 56 µM | > 100 µM | 35.1 µM | > 100 µM | > 100 µM | > 100 µM |  |  | 68.5 µM | 19.6 µM | 22.8 µM | 1.32 µM
O=C(Sc1sc(=S)sc1SC(=O)c1ccccc1)c1ccccc1 |  | > 100 µM |  | 53 µM |  |  |  | > 100 µM |  |  |  | > 100 µM |  | > 100 µM |  | 78 µM | 72.4 µM | > 100 µM |  | 
COc1cc(NC(C)CCCN)c2ncccc2c1Sc1ccc(Cl)cc1 (configuration not stated) |  |  | 1.75 µM | 3.33 µM | 1.8 µM | 3.22 µM |  |  | 1.59 µM | 3.19 µM | 1.83 µM | 3.28 µM | 2.05 µM | 3.88 µM | 3.65 µM | 16.2 µM | 3.29 µM | 3.48 µM | 1.75 µM | 1.37 µM
Oc1ccccc1C=Nc1ccccc1N=Cc1ccccc1O.[Cu+2] | 2.55 µM | 12.3 µM | 3.13 µM | 14.2 µM | 12.3 µM | 30 µM | 11.8 µM | 27.7 µM | 3 µM | 15.6 µM | 10.5 µM | 23.2 µM |  |  | 7.66 µM | 20.8 µM | 11.7 µM | 8.9 µM | 2.99 µM | 1.03 µM
Cc1cc2c(=O)[nH]c(N)nc2nc1C |  | > 100 µM |  | > 100 µM |  | > 100 µM |  |  |  | > 100 µM |  | > 100 µM |  | > 100 µM |  | > 100 µM | > 100 µM | > 100 µM |  | 
Cc1cc2c(=O)cc(-c3ccc(F)cc3)oc2c(C(=O)O)c1C |  | > 100 µM |  | > 100 µM |  | > 100 µM |  | > 100 µM |  | > 100 µM |  | > 100 µM |  |  |  |  |  |  |  | 
CC/C(CC(=O)CCC(=O)Nc1ccc(C)c(C)c1)=N\NC(=O)C(N)=O |  | > 100 µM |  | > 100 µM |  |  |  | > 100 µM |  | > 100 µM |  | > 100 µM |  | > 100 µM |  | > 100 µM | > 100 µM | > 100 µM |  | 
CC12CC(Sc3ccccc3N1)c1ccccc1O2 (configuration not stated) |  |  |  | 30.7 µM |  | 33.2 µM |  | 32.5 µM |  | 27.4 µM |  | 30.4 µM |  | 28.8 µM |  | 33 µM | 38.4 µM | 35.2 µM |  | 
O=C(Nc1cccc(-n2cc(-c3ccncc3)c(-c3ccc(O)c(Cl)c3)n2)c1)c1ccc(Cl)c(Cl)c1 | 4.13 µM | 74.4 µM | 10.8 µM | 47.6 µM | 3.91 µM | > 100 µM | 3.47 µM | > 100 µM | 4.5 µM | > 100 µM | 3.45 µM | 19.4 µM |  |  | 1.94 µM | 89.9 µM | > 100 µM | 28.4 µM | 20.3 µM | 2.33 µM
CCN(CC)CCC(=O)/C=C/c1ccc(C)cc1 |  |  |  | 30.9 µM |  | 38.3 µM |  | 19.1 µM |  | 29.8 µM |  | 28.1 µM |  | 33.6 µM |  | 24 µM | 71.1 µM | 35.4 µM |  | 
Cc1cn2c(/C=N/N=C(N)N)c(-c3ccsc3)nc2s1 | 28.4 µM | > 100 µM | 11.3 µM | 23.4 µM | 5.29 µM | > 100 µM |  |  | 25.2 µM | > 100 µM |  |  |  |  | 28.3 µM | 43.3 µM |  |  |  | 
COc1ccc(C#CC2=C(c3cc(OC)c(OC)c(OC)c3)C(=O)OC2)cc1 | 8.6 µM | > 50 µM | 5.23 µM | 18.4 µM | 6.65 µM | > 50 µM | 1.29 µM | 3.26 µM | 18.9 µM | > 50 µM | 9.28 µM | > 50 µM | 4.48 µM | > 50 µM | 8.21 µM | 30.1 µM |  |  |  | 
C#CC(=O)OCC#CCOC(=O)C#C |  | 9.81 µM |  | 56.7 µM |  | > 100 µM |  | 28.8 µM |  | 23.1 µM |  |  |  |  |  | > 100 µM | 46.1 µM | 34.8 µM |  | 
Cc1ccc(NC(=O)/C(=N\NC(N)=O)c2c(O)c3ccccc3[nH]c2=O)cc1 |  |  |  | > 100 µM |  | > 100 µM |  | > 100 µM |  | > 100 µM |  | > 100 µM |  | > 100 µM |  | > 100 µM |  | > 100 µM |  | 
O=C(NC(=O)c1cc2cc(Br)cc(Br)c2oc1=O)Oc1ccccc1 |  |  |  | > 100 µM |  | > 100 µM |  | > 100 µM |  | > 100 µM |  | > 100 µM |  |  |  | > 100 µM | > 100 µM | > 100 µM |  | 
COc1ccc(/C(=N/O)c2cc(OC)c(OC)c(OC)c2)c(OC)c1N | 4.02 µM | > 100 µM |  |  | 3.92 µM | > 100 µM | 2.98 µM | > 100 µM | 5.45 µM | > 100 µM | > 100 µM | > 100 µM | 3.38 µM | 14.3 µM | 4.01 µM | > 100 µM | > 100 µM | > 100 µM | 6.55 µM | > 100 µM

— PubChem BioAssay (NCI)
